Data on three compounds can be found in ChEMBL document CHEMBL5528010, “The discovery of aryl-2-nitroethyl triamino pyrimidines as anti-Trypanosoma brucei agents” (Eur J Med Chem, 2024).

Each structure is given as a SMILES string. The source made the active and inactive calls. The calls are words filed in the database; no cut-off is given here.

Data set [1] in a line: Inhibition of N-terminal his 6 tagged recombinant Trypanosoma brucei PTR1 expressed in Escherichia coli BL21 (DE3) cells preincubated for 10 mins followed by NADPH addition and measured after 10 to 50 mins by multilabel plate reader method. Format: cell-based.
The target of data set [2] is T1, Pteridine reductase 1 (Leishmania major, UniProt Q01782).
T1 sequence (Q01782 whole entry): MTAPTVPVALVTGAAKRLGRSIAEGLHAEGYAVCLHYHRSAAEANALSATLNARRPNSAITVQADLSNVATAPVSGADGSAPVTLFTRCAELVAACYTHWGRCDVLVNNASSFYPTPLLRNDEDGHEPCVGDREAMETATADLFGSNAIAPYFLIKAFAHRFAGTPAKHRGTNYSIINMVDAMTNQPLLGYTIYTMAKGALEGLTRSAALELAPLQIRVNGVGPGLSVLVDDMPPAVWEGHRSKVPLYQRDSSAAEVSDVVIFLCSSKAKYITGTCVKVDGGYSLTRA
Put plainly: Inhibition of N-terminal his 6 tagged recombinant Leishmania major PTR1 expressed in Escherichia coli BL21 (DE3) cells preincubated for 10 mins followed by NADPH addition and measured after 10 to 50 mins by multilabel plate reader method.

Data set [3] has as its system Trypanosoma brucei. In words: Antiparasitic activity against blood stream form Trypanosoma brucei assessed as parasitic growth inhibition incubated for 72 hrs by resazurin dye based fluorescence analysis. Format: functional, organism-based. In general terms: The colour change of resazurin is a common sign of viable cells or microbes.
Data set [4] has as its system THP-1. In words: Cytotoxicity against human THP-1 cells assessed as reduction in cell viability measured after 72 hrs by MTT assay. Format: functional. On the technique in general: Tetrazolium dyes change colour on reduction, which living cells bring about.
A short description of data set [5]: Selectivity index, ratio of CC50 for human THP-1 cells to EC50 for bloodstream form Trypanosoma brucei. Format: toxicity. The note with it: read-out: Ratio CC50/EC50.
Data set [6] has as its system Leishmania infantum. Put plainly: Antiparasitic activity against Leishmania infantum intracellular amastigotes MHOM/BR/1972/BH46 infected in human THP-1 cells assessed as inhibition of parasitic growth at 50 uM pre-infected for 24 hrs followed by compound addition and measured after 48 hrs relative to control. The note with it: MHOM/BR/1972/BH46, THP-1. Format: functional.

Data set [7] addresses Voltage-gated inwardly rectifying potassium channel KCNH2 (Homo sapiens, UniProt Q12809). In words: Inhibition of human ERG incubated for 2 hrs by fluorescence polarization assay. Format: toxicity. On the technique in general: In fluorescence polarisation assays a small probe gives low polarisation when free and higher when bound to something large.
Data set [8] concerns the target Cytochrome P450 2C9 (Homo sapiens, UniProt P11712). In words: Inhibition of CYP2C9 (unknown origin) expressed in baculovirus infected insect cells using luciferin as substrate preincubated for 30 mins followed by NADPH addition and measured after 30 mins by luminescence based analysis. The data set is classed as ADME, Insect cell.
Data set [9] concerns the target T2, Cytochrome P450 1A2 (Homo sapiens, UniProt P05177).
T2 sequence (P05177 whole entry): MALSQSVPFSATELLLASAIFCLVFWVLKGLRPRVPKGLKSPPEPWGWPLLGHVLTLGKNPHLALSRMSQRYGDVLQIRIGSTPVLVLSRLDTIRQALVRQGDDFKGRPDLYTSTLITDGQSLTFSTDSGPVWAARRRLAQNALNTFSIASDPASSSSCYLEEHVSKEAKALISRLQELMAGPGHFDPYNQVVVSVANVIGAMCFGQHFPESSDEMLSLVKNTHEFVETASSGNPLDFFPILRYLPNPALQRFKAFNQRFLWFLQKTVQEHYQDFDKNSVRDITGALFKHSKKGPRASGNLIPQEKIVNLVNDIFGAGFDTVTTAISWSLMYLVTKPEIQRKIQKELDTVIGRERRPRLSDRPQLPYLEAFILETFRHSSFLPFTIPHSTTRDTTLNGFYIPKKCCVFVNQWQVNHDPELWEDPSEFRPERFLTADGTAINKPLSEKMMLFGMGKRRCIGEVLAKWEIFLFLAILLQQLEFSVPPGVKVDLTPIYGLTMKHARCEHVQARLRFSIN
In words: Inhibition of CYP1A2 (unknown origin) expressed in baculovirus infected insect cells using luciferin as substrate preincubated for 30 mins followed by NADPH addition and measured after 30 mins by luminescence based analysis. Format: ADME, Insect cell.

For data set [10], the target named is Cytochrome P450 2C19 (Homo sapiens, UniProt P33261). In words: Inhibition of CYP2C19 (unknown origin) expressed in baculovirus infected insect cells using luciferin as substrate preincubated for 30 mins followed by NADPH addition and measured after 30 mins by luminescence based analysis. The data set is classed as ADME, Insect cell.
Data set [11] addresses Cytochrome P450 2D6 (Homo sapiens, UniProt P10635). Put plainly: Inhibition of CYP2D6 (unknown origin) expressed in baculovirus infected insect cells using luciferin as substrate preincubated for 30 mins followed by NADPH addition and measured after 30 mins by luminescence based analysis. Format: ADME, Insect cell.
Data set [12] deals with Cytochrome P450 3A4 (Homo sapiens, UniProt P08684). In words: Inhibition of CYP3A4 (unknown origin) expressed in baculovirus infected insect cells using luciferin as substrate preincubated for 30 mins followed by NADPH addition and measured after 30 mins by luminescence based analysis. The data set is classed as ADME, Insect cell.
The subject of data set [13] is hERG. Put plainly: Selectivity index, ratio of IC50 for human ERG to EC50 for blood stream form Trypanosoma brucei. Format: toxicity. The note with it: read-out: Ratio IC50/EC50.
For data set [14], the system named is CYP1A2. Put plainly: Selectivity index, ratio of IC50 for CYP1A2 (unknown origin) to EC50 for blood stream form Trypanosoma brucei. To be noted: read-out: Ratio IC50/EC50. Format: toxicity.
Data set [15] relates to CYP2C9. Put plainly: Selectivity index, ratio of IC50 for CYP2C9 (unknown origin) to EC50 for blood stream form Trypanosoma brucei. Format: toxicity. The note with it: read-out: Ratio IC50/EC50.
Data set [16] deals with CYP2C19. Put plainly: Selectivity index, ratio of IC50 for CYP2C19 (unknown origin) to EC50 for blood stream form Trypanosoma brucei. Format: toxicity. To be noted: read-out: Ratio IC50/EC50.
The subject of data set [17] is CYP2D6. Put plainly: Selectivity index, ratio of IC50 for CYP2D6 (unknown origin) to EC50 for blood stream form Trypanosoma brucei. The note with it: read-out: Ratio IC50/EC50. Format: toxicity.
Data set [18] deals with CYP3A4. In words: Selectivity index, ratio of IC50 for CYP3A4 (unknown origin) to EC50 for blood stream form Trypanosoma brucei. Format: toxicity. The note with it: read-out: Ratio IC50/EC50.
Data set [19] can be described thus: Growth inhibition of human A549 cells measured after 48 hrs by celltiter-glo assay. The data set is classed as toxicity, cell-based.
The nature of data set [20]: Mitochondrial toxicity in human A549 cells. Format: cell-based.
The nature of data set [21]: Selectivity index, ratio of GI50 for human A549 cells to EC50 for blood stream form Trypanosoma brucei. Format: toxicity. The note with it: read-out: Ratio GI50/EC50.
Data set [22] in a line: Selectivity index, ratio of IC50 for human A549 cells to EC50 for blood stream form Trypanosoma brucei. Format: toxicity. To be noted: read-out: Ratio IC50/EC50.
A short description of data set [23]: Cmax in BALB/c mouse at 20 mg/kg, po measured upto 24 hrs by LC-MS/MS analysis. The data set is classed as ADME, organism-based. To be noted: in vivo.
Data set [24] in a line: Tmax in BALB/c mouse at 20 mg/kg, po measured upto 24 hrs by LC-MS/MS analysis. The data set is classed as ADME, organism-based. The note with it: in vivo.
Data set [25] is described as follows: AUC last in BALB/c mouse at 20 mg/kg, po measured upto 24 hrs by LC-MS/MS analysis. The data set is classed as ADME, organism-based. The note with it: in vivo.
The nature of data set [26]: Half life in BALB/c mouse at 20 mg/kg, po measured upto 24 hrs by LC-MS/MS analysis. The data set is classed as ADME, organism-based. The note with it: in vivo.
Data set [27] deals with Trypanosoma brucei. Put plainly: Anti-parasitic activity against Trypanosoma brucei infected in BALB/c mouse model assessed as reduction of parasitemia at 20 mg/kg administered daily. Format: functional, organism-based.
The subject of data set [28] is Trypanosoma brucei. Put plainly: Anti-parasitic activity against Trypanosoma brucei infected in BALB/c mouse model assessed as reduction of parasitemia at 5 mg/kg/day, ip relative to control. Format: functional. On the set-up: scale not given: the % may be the effect or the level left.

Chain of Cytochrome P450 2C19 (P33261 whole entry): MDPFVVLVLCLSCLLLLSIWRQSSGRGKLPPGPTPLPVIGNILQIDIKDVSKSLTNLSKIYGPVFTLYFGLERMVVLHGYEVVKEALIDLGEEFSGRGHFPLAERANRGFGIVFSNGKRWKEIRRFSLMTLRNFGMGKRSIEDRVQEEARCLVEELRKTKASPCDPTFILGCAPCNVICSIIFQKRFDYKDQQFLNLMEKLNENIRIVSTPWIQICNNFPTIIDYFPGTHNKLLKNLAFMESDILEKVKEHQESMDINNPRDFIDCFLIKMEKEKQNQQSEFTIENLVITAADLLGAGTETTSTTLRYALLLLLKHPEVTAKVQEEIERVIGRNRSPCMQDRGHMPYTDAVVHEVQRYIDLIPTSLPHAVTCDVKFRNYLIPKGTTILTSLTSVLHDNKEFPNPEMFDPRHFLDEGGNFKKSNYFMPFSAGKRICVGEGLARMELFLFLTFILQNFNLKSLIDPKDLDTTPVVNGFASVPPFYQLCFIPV
Chain of Cytochrome P450 2D6 (P10635 whole entry): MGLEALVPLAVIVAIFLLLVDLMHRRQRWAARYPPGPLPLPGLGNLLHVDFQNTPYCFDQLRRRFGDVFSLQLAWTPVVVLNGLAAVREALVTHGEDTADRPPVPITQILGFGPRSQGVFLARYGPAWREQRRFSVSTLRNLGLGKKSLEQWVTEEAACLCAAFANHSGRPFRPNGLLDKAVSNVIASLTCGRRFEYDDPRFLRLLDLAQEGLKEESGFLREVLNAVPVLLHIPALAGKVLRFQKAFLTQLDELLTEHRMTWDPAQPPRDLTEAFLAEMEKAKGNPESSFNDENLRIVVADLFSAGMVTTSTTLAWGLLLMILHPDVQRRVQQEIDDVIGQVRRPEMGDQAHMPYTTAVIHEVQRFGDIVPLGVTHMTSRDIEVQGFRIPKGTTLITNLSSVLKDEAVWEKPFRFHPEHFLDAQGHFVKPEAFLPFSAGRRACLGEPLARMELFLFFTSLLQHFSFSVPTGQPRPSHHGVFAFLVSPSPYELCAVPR
Chain of Cytochrome P450 2C9 (P11712 whole entry): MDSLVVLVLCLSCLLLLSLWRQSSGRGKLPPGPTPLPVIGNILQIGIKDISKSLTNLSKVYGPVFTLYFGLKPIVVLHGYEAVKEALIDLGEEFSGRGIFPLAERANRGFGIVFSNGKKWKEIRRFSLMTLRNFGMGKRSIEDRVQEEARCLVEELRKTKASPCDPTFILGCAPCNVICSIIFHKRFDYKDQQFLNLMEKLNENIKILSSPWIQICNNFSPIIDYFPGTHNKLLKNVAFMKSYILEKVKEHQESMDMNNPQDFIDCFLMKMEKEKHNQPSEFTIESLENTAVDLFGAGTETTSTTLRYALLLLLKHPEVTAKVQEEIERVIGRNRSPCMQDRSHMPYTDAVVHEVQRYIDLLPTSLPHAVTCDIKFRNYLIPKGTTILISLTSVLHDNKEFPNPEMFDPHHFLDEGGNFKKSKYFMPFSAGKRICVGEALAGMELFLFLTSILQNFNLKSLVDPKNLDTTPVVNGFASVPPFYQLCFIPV
Chain of Voltage-gated inwardly rectifying potassium channel KCNH2 (Q12809 whole entry): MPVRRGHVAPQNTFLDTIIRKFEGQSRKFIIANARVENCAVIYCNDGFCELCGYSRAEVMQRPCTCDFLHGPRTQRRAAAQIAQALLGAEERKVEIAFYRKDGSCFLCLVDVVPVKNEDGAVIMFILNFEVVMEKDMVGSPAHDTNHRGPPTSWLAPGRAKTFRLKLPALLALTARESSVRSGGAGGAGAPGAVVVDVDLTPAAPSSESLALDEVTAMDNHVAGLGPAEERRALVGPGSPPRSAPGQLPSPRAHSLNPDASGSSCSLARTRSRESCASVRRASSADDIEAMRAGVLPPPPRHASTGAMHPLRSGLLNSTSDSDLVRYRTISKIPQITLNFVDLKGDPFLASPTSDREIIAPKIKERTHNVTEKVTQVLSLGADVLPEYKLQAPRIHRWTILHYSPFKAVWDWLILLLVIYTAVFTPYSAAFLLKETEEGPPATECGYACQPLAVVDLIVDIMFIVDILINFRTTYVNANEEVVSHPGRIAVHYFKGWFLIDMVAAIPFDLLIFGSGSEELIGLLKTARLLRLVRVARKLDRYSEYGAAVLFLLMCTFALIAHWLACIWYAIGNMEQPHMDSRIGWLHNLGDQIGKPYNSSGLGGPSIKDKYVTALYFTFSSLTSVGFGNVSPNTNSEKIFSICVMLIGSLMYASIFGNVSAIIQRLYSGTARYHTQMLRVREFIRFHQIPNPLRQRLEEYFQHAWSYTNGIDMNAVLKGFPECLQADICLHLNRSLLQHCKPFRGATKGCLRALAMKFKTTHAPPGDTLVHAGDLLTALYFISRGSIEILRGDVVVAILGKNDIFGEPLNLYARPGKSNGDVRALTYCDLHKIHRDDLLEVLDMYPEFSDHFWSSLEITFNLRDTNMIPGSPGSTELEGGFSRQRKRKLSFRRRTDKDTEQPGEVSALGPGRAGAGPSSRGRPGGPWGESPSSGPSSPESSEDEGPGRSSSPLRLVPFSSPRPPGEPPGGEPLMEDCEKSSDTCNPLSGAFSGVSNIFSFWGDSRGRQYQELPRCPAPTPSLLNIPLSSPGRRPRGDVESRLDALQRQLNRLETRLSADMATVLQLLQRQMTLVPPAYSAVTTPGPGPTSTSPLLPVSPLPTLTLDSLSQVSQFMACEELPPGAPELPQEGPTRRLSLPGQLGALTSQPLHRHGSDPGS
Chain of Cytochrome P450 3A4 (P08684 whole entry): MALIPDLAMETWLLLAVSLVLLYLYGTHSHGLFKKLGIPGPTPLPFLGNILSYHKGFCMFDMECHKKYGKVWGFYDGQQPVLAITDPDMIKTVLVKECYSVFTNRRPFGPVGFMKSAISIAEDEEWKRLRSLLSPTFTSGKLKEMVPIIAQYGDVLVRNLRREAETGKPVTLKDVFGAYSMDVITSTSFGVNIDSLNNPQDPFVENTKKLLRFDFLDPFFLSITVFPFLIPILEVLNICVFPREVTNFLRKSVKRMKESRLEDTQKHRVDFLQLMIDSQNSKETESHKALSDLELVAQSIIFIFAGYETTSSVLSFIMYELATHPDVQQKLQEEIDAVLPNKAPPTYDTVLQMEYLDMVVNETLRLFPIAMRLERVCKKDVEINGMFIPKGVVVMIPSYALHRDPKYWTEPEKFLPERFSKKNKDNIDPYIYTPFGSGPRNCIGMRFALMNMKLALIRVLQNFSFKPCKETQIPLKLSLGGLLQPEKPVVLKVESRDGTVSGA

Turning to `Nc1nc(N)c(C(C[N+](=O)[O-])c2ccccc2OCc2ccc(Cl)c(Cl)c2)c(N)n1` (stereo unspecified), the IC50 in data set [1] was 0.27 µM; in data set [2], 46 µM; in data set [7], over 100 µM; in data set [8] it was 3.2 µM; in [9], 1.2 µM; in data set [10], 8 µM. For the same compound, the concentration for half-maximal inhibition (IC50) in [11] was found to be 5.9 µM; in [12], 5.9 µM; in data set [20], 3.9 µM. The EC50 in [3] worked out at 0.3 µM. Also, the CC50 in data set [4] turned out to be 25 µM. The selectivity ratio in data set [5] was 83; in data set [13] it was over 300; in data set [14], 4; in data set [15] it was 11; in data set [16] it was 26; in data set [17] it was 20. The selectivity ratio in data set [18] was determined as 20; in [21], 33; in data set [22], 13. In addition, the inhibition at 50 µM in data set [6] is 11.7%. Also, in data set [19], the 50% growth inhibitory concentration (GI50) at 48 h came to 10 µM. Further, the highest level in [23] (Cmax) was 373 ng/mL. For the same compound, the Tmax in data set [24] was 0.5 h. The same compound showed an area under the curve AUC(0-t) at 24 h in [25] of 1180 ng·h/mL. In [26], this compound had a half-life of 3 h.

In the case of `Nc1nc(N)c(C(C[N+](=O)[O-])c2csc3ccccc23)c(N)n1` (stereo unspecified), the half-inhibitory concentration (IC50) in [1] was 0.3 µM; in data set [2] it was 47.4 µM; in [7], 16 µM; in [8], 24.4 µM; in [9], 3 µM; in data set [10], 15.3 µM. In addition, the figures for the concentration for half-maximal inhibition (IC50) in [11], in data set [12] and in data set [20] were 10.2 µM, over 100 µM and 10.4 µM, respectively. Also, the concentration for a half-maximal effect (EC50) in [3] came to 0.09 µM. Also, the CC50 in data set [4] was found to be 12.5 µM. Also, the selectivity ratio in data set [5] turned out to be 139; in data set [13], 178; in data set [14], 33; in [15], 271; in [16], 170; in [17] it was 113. For the same compound, the values for the selectivity ratio in [18], in data set [21] and in data set [22] were over 1100, 117 and 115, respectively. Further, the inhibition at 50 µM in [6] came out at 49%. In addition, it took 10.6 µM to inhibit growth in data set [19] by half (GI50 at 48 h). In addition, the Cmax in data set [23] is 828 ng/mL. The time to peak (Tmax) in data set [24] was 1 h. Moreover, the AUC(0-t) at 24 h in [25] turned out to be 5290 ng·h/mL. In [26], this compound showed a half-life of 2.1 h. The result in data set [27] was inactive.

With `N=C(N)c1ccc(OCCCCCOc2ccc(C(=N)N)cc2)cc1` [PENTAMIDINE], the IC50 in data set [2] was determined as 87.1 µM. Moreover, the EC50 in [3] was 0.004 µM. Moreover, the Activity in data set [28] stood at 100%.

A word on the IC50: it is the concentration that gives 50% inhibition. The term EC50 denotes the concentration that produces a half-maximal response. For orientation: CC50 means the concentration giving 50% cytotoxicity. As a reminder, the inhibition is the share of the control response that was lost under treatment. The term GI50 denotes the concentration giving 50% growth inhibition. By Cmax is commonly meant the highest concentration seen after dosing. What is called Tmax is the time at which the peak concentration occurs. The term AUC(0-t) denotes the area under the concentration-time curve up to a stated or last time point. In general, half-life refers to how long it takes for the measured level to halve.
